US20130045983A1, “HSP90 INHIBITORS FOR THERAPEUTIC TREATMENT” (Novartis AG, priority 2008, published 2013)

What was measured:
Type in all cases: cell-based
[1] = tested on: MAXF 583; assay: Clonogenic assay, MAXF 583; details: Homo sapiens, Breast, Ductual adenocarcinoma, soft agar, read-out: IC50 (colony formation)
Method: (§1) The anticancer activity of (R)-2-amino-7-[2-(6-methoxy-pyridin-2-yl)-phenyl]-4-methyl-7,8-dihydro-6H-pyrido[4,3-d]pyrimidin-5-one is evaluated in 30 human tumor xenografts in vitro using a clonogenic assay. In this assay, human cells derived from cancer patients are evaluated for the capacity of (R)-2-amino-7-[2-(6-methoxy-pyridin-2-yl)-phenyl]-4-methyl-7,8-dihydro-6H-pyrido[4,3-d]pyrimidin-5-one to inhibit the formation of 3 dimensional colonies. […] The tumor xenografts which have never been cultured in cell culture plastic dishes are isolated from nude mice. Tumor cell suspensions are prepared and incubated in 24 well plates containing layers of soft agar. Under these conditions a special subpopulation of cells selectively grows to colonies. (R)-2-amino-7-[2-(6-methoxy-pyridin-2-yl)-phenyl]-4-methyl-7,8-dihydro-6H-pyrido[4,3-d]pyrimidin-5one is tested in 6 concentrations up to 1000 nM. The tumor test panel comprises 1 to 10 models of 12 different human tumor types, which were bladder cancer, colon, gastric, non small cell lung (adeno, squamous cell, and large cell), small cell lung, mammary, ovary, and prostate cancer, as well as leukemia, lymphoma, melanoma, and sarcoma. Antitumor effects are recorded as inhibition of colony formation in relation to untreated controls. […]

[2] = tested on: SKBR3; assay: Cell proliferation assay, SKBR3 (breast); details: Homo sapiens, SK-BR-3, 72 hours in presence of compound
Method: (§2) Seventeen cancer derived cell lines are used (GTL-16, N87, H1975, A549, H69, A2780, PC3, BT474, SKBR3, MCF-7, A375, MV4;11, K562, KM12L4A, H929, OPM-2 and KMS-11) to test the effect of (R)-2-amino-7-[2-(6-methoxy-pyridin-2-yl)-phenyl]-4-methyl-7,8-dihydro-6H-pyrido[4,3-d]pyrimidin-5-one. These cell lines cover the following 9 tumor types: Gastric, Lung, Ovarian, Prostate, Breast, Melanoma, Leukemia, Colon and Multiple myeloma. After division and medium change, cells from stock culture are seeded on cell plates and cultured for about 18 hours to allow cell growth and attachment before starting the assay. Then on the first day of the assay, (R)-2-amino-7-[2-(6-methoxy-pyridin-2-yl)-phenyl]-4-methyl-7,8-dihydro-6H-pyrido[4,3-d]pyrimidin-5-one is added to the medium at various concentrations. Cells are cultured up to 72 or 96 hours and cell proliferation is determined using commercially available cell proliferation kits.
(§3) Table 1 relates to the concentration in nM of (R)-2-amino-7-[2-(6-methoxy-pyridin-2-yl)-phenyl]-4-methyl-7,8-dihydro-6H-pyrido[4,3-d]pyrimidin-5-one which inhibits cell proliferation by 50% (IC50). […]

[3] = tested on: OPM-2; assay: Cell proliferation assay, OPM-2 (multiple myeloma); details: Homo sapiens, 72 hours in presence of compound
Method: as §2, §3

[4] = tested on: MEXF 1341; assay: Clonogenic assay, MEXF 1341; details: Homo sapiens, Amelanotic melanoma, soft agar, read-out: IC50 (colony formation)
Method: as §1

[5] = tested on: BXF 1218; assay: Clonogenic assay, BXF 1218; details: Homo sapiens, Bladder, Transitional cell carcinoma, soft agar, read-out: IC50 (colony formation)
Method: as §1

[6] = tested on: KM12L4A; assay: Cell proliferation assay, KM12L4A (colon); details: 72 hours in presence of compound
Method: as §2, §3

[7] = tested on: LEXF MOLT4; assay: Clonogenic assay, LEXF MOLT4; details: Homo sapiens, MOLT-4, Leukemia, ALL, T lymphoblast, soft agar, read-out: IC50 (colony formation)
Method: as §1

[8] = tested on: MAXF 1162; assay: Clonogenic assay, MAXF 1162; details: Homo sapiens, Breast, invasive ductal carcinoma, soft agar, read-out: IC50 (colony formation)
Method: as §1

[9] = tested on: MCF-7; assay: Cell proliferation assay, MCF-7 (breast); details: Homo sapiens, MCF7, 72 hours in presence of compound
Method: as §2, §3

[10] = tested on: SXF 1410; assay: Clonogenic assay, SXF 1410; details: Homo sapiens, Sarcoma, Fibroblastic osteosarcoma, soft agar, read-out: IC50 (colony formation)
Method: as §1

[11] = tested on: LXFA 526; assay: Clonogenic assay, LXFA 526; details: Homo sapiens, Lung, non-small cell, Adenocarcinoma, soft agar, read-out: IC50 (colony formation)
Method: as §1

[12] = tested on: SXF 463; assay: Clonogenic assay, SXF 463; details: Homo sapiens, Sarcoma, Rhabdomyosarcoma, soft agar, read-out: IC50 (colony formation)
Method: as §1

[13] = tested on: H69; assay: Cell proliferation assay, H69 (lung); details: Homo sapiens, NCI-H69, 72 hours in presence of compound
Method: as §2, §3

[14] = tested on: PRXF MRIH1579; assay: Clonogenic assay, PRXF MRIH1579; details: Homo sapiens, Prostate, Adenocarcinoma, soft agar, read-out: IC50 (colony formation)
Method: as §1

[15] = tested on: A2780; assay: Cell proliferation assay, A2780 (ovarian); details: Homo sapiens, 72 hours in presence of compound
Method: as §2, §3

[16] = tested on: MEXF 462; assay: Clonogenic assay, MEXF 462; details: Homo sapiens, Amelanotic melanoma, soft agar, read-out: IC50 (colony formation)
Method: as §1

[17] = tested on: CXF 1729; assay: Clonogenic assay, CXF 1729; details: Homo sapiens, Colon, Papillary adenocarcinoma, soft agar, read-out: IC50 (colony formation)
Method: as §1

[18] = tested on: PC3; assay: Cell proliferation assay, PC3 (prostate); details: Homo sapiens, PC-3, 72 hours in presence of compound
Method: as §2, §3

[19] = tested on: MEXF 989; assay: Clonogenic assay, MEXF 989; details: Homo sapiens, Amelanotic melanoma, soft agar, read-out: IC50 (colony formation)
Method: as §1

[20] = tested on: BXF 1258; assay: Clonogenic assay, BXF 1258; details: Homo sapiens, Bladder, Transitional cell carcinoma, soft agar, read-out: IC50 (colony formation)
Method: as §1

[21] = tested on: CXF 214; assay: Clonogenic assay, CXF 214; details: Homo sapiens, Stomach, Adenocarcinoma, soft agar, read-out: IC50 (colony formation)
Method: as §1

- IC50 [1]: 24 nM
- GI50 [2]: 18 nM
- GI50 [3]: 13 nM
- IC50 [4]: > 1000 nM
- IC50 [5]: 26 nM
- IC50 [7]: 21 nM
- IC50 [8]: 6 nM
- GI50 [9]: 8 nM
- IC50 [11]: 36 nM
- IC50 [12]: 5 nM
- IC50 [14]: > 1000 nM
- GI50 [15]: 27 nM
- IC50 [16]: 65 nM
- IC50 [17]: 199 nM
- GI50 [18]: 16 nM
- IC50 [19]: 17 nM
- IC50 [20]: 316 nM
- IC50 [21]: > 1000 nM
Compound: COc1cccc(-c2ccccc2[C@H]2Cc3nc(N)nc(C)c3C(=O)N2)n1 [(R)-2-amino-7-[2-(6-methoxy-pyridin-2-yl)-phenyl]-4-methyl-7,8-dihydro-6H-pyrido[4,3-d]pyrimidin-5-one]
- GI50 [6]: 11 nM
- IC50 [10]: > 1000 nM
- GI50 [13]: 37 nM
